Columns and labels:
[1] = biological target: T1, Nuclear receptor subfamily 1 group I member 2 (Homo sapiens, UniProt O75469); test: Activation of human PXR expressed in human HepG2 cells assessed as increase in CYP3A4 mRNA level at >1 uM incubated for 24 hrs by luciferase based analysis; assay type: cell-based; conditions: hepg2, 24 h
T1 sequence (O75469 whole entry): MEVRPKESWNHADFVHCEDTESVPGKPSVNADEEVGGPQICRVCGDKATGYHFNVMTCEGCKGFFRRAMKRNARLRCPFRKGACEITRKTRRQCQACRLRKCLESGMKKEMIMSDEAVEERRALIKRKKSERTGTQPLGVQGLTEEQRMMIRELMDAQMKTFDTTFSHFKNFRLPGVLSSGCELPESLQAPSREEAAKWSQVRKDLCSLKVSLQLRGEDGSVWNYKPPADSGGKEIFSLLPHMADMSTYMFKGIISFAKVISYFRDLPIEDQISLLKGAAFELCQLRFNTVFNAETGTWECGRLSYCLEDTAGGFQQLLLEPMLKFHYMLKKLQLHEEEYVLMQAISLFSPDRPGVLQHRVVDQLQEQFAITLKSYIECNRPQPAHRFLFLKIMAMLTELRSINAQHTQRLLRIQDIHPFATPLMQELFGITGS

[2] = biological target: T2, Nuclear receptor subfamily 1 group I member 3 (Homo sapiens, UniProt Q14994); test: Agonist activity at human CAR expressed in human HepG2 cells co-expressing CYP2B6 incubated for 23 hrs by Luciferase reporter gene assay; assay type: cell-based
T2 sequence (Q14994 whole entry): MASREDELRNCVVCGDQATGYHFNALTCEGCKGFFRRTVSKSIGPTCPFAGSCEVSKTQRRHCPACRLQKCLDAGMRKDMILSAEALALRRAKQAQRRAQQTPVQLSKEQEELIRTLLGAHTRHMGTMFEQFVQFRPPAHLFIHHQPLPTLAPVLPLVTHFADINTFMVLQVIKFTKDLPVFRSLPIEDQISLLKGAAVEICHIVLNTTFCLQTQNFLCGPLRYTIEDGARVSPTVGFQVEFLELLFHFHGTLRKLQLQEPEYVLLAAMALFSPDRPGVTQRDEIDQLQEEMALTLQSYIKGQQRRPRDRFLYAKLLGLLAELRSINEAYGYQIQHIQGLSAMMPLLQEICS

Row | SMILES | EC50 [2] [nM] | Activity [1]
1 | c1ccc2c(c1)CC(NCc1c(-c3ccc4ccccc4c3)nc3occn13)C2 | 670 | Active
2 | Clc1ccc(-c2nc3sccn3c2/C=N/OCc2ccc(Cl)c(Cl)c2)cc1 | – | Active
3 | O=C(N[C@H]1C[C@H](c2ccccc2)C1)c1c(-c2ccc3ccccc3c2)nc2occn12 | 1100 | –
4 | O=C(NCCc1ccc(Br)cc1)c1c(-c2ccc3ccccc3c2)nc2occn12 | 3500 | –
5 | O=C(NC1Cc2ccccc2C1)c1c(CCc2ccccc2)nc2occn12 | > 100000 | –
6 | O=C(Nc1c(-c2ccc3ccccc3c2)nc2occn12)C1Cc2ccccc2C1 | 1200 | –
7 | Cc1ccccc1CCNC(=O)c1c(-c2ccc3ccccc3c2)nc2occn12 | 830 | –
8 | O=C(NC1Cc2ccccc2C1)c1c(-c2ccc(F)c(C(F)(F)F)c2)nc2occn12 | 18000 | –
9 | O=C(NOCc1ccccc1)c1c(-c2ccc3ccccc3c2)nc2occn12 | 4400 | –
10 | O=C(NCC1Cc2ccccc2C1)c1c(-c2ccc(F)cc2F)nc2occn12 | 1900 | –

Further molecules by falling EC50 [2], results first:

Row | EC50 [2] [nM] | SMILES | Activity [1]
11 | 750 | O=C(NC1Cc2ccccc2C1)c1c(-c2ccc3c(c2)OCCO3)nc2occn12 | –
12 | 440 | O=C(NC1Cc2ccccc2C1)c1c(-c2ccc(F)cc2F)nc2occn12 | –
13 | 380 | O=C(OC1Cc2ccccc2C1)c1c(-c2ccc3ccccc3c2)nc2occn12 | –
14 | 380 | O=C(NC1Cc2ccccc2C1)c1c(-c2ccc(Cl)cc2)nc2occn12 | –
15 | 350 | O=C(NOCc1ccc(Cl)c(Cl)c1)c1c(-c2ccc3ccccc3c2)nc2occn12 | –
16 | 330 | O=C(N[C@H]1C[C@@H](c2ccccc2)C1)c1c(-c2ccc3ccccc3c2)nc2occn12 | –
17 | 210 | O=C(NCC1Cc2ccccc2C1)c1c(-c2ccc3ccccc3c2)nc2occn12 | –

Source: ChEMBL document CHEMBL6109132, “Potent and Selective Human Constitutive Androstane Receptor Activator DL5055 Facilitates Cyclophosphamide-Based Chemotherapies” (J Med Chem, 2025)
